Test results published in ChEMBL document CHEMBL1123545 (J Med Chem, 1986).
pKi: −log10 of the molar value. ≈ marks a conversion by molar mass, not a printed value.

Experiments:
[1] = system: Enterococcus faecium; assay: Compound was evaluated for growth inhibition against Streptococcus faecium ATCC 8043; type: functional, organism-based
[2] = system: L1210; assay: (§1) Compound was evaluated for transport properties against L1210 cells for influx; type: functional, cell-based, Mus musculus
[3] = system: L1210; assay: as §1; type: functional, Mus musculus
[4] = target: T1, Dihydrofolate reductase (Mus musculus, UniProt P00375); assay: Compound was evaluated for binding affinity against Dihydrofolate reductase of L1210 cells; type: cell-based
T1 sequence (P00375 whole entry): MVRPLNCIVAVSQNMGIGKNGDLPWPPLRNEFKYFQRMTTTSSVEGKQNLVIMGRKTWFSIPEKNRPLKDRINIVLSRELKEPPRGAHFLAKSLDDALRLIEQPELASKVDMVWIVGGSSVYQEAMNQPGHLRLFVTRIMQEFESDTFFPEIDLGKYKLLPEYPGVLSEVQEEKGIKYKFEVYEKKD

[5] = system: L1210; assay: Compound was evaluated for growth inhibition and minimal inhibitory concentration was reported against L1210 cells.; type: functional, Mus musculus
[6] = system: Mus musculus; assay: (§2) Antitumor activity against L1210 leukemia in mice after subcutaneous administration (Q2Dx5) at a dose 12 mg/kg out of 9 mice tested; type: functional
[7] = system: Mus musculus; assay: Compound was evaluated for antitumor activity against L1210 leukemia in mice after subcutaneous administration (Q2Dx5) at a dose 9 mg/kg; type: functional; details: for ILS at 9 mg/kg: Mus musculus, L1210, sc
[8] = system: Mus musculus; assay: (§3) Antitumor activity against L1210 leukemia in mice after subcutaneous administration (Q2Dx5) at a dose 9 mg/kg out of 6 mice tested; type: ADME, organism-based; parameters: dose 9 mg/kg, route subcutaneous; details: in vivo, sc
[9] = system: Mus musculus; assay: as §3; type: functional
[10] = system: Mus musculus; assay: Compound was evaluated for antitumor activity against L1210 leukemia in mice after subcutaneous administration (Q2Dx5) at a dose 12 mg/kg; type: functional; details: for ILS at 12 mg/kg: L1210, sc
[11] = system: Mus musculus; assay: (§4) Antitumor activity against L1210 leukemia in mice after subcutaneous administration (Q2Dx5) at a dose 24 mg/kg out of 3 mice tested; type: ADME, organism-based; parameters: dose 24 mg/kg, route subcutaneous; details: in vivo, sc
[12] = system: Mus musculus; assay: Antitumor activity against L1210 leukemia in mice after subcutaneous administration (Q2Dx5) at a dose 18/mg/kg out of 9 mice tested; type: functional
[13] = system: Mus musculus; assay: Antitumor activity against L1210 leukemia in mice after subcutaneous administration (Q2Dx5) at a dose 18 mg/kg out of 9 mice tested; type: ADME, organism-based; parameters: dose 18 mg/kg, route subcutaneous; details: in vivo, sc
[14] = system: Mus musculus; assay: Compound was evaluated for antitumor activity against L1210 leukemia in mice after subcutaneous administration (Q2Dx5) at a dose 18 mg/kg; type: functional; details: for ILS at 18 mg/kg: L1210, sc
[15] = system: Mus musculus; assay: Compound was evaluated for antitumor activity against L1210 leukemia in mice after subcutaneous administration (Q2Dx5) at a dose 24 mg/kg; type: functional; details: for ILS at 24 mg/kg: L1210, sc
[16] = system: L1210; assay: Compound was evaluated for transport properties against L1210 cells for efflux; type: functional, Mus musculus
[17] = system: Mus musculus; assay: as §4; type: functional
[18] = system: Mus musculus; assay: as §2; type: ADME, organism-based; parameters: dose 12 mg/kg, route subcutaneous; details: in vivo, sc
[19] = system: Mus musculus; assay: (§5) Antitumor activity against L1210 leukemia in mice after subcutaneous administration (Q2Dx5) at a dose 12 mg/kg out of 3 mice tested; type: ADME, organism-based; parameters: dose 12 mg/kg, route subcutaneous; details: in vivo, sc
[20] = system: Mus musculus; assay: as §5; type: functional
[21] = system: Mus musculus; assay: Compound was evaluated for antitumor activity against L1210 leukemia in mice after subcutaneous administration (Q2Dx5) at 32 mg/kg; type: functional
[22] = system: Mus musculus; assay: (§6) Antitumor activity against L1210 leukemia in mice after subcutaneous administration (Q2Dx5) at a dose 24 mg/kg out of 9 mice tested; type: functional
[23] = system: Mus musculus; assay: Compound was evaluated for antitumor activity against L1210 leukemia in mice after subcutaneous administration (Q2Dx5) at a dose 32 mg/kg; type: functional; details: L1210, sc
[24] = system: Mus musculus; assay: as §6; type: ADME, organism-based; parameters: dose 24 mg/kg, route subcutaneous; details: in vivo, sc
[25] = system: Mus musculus; assay: Antitumor activity against L1210 leukemia in mice after subcutaneous administration (Q2Dx5) at a dose 17 mg/kg out of 9 mice tested; type: functional
[26] = system: Mus musculus; assay: (§7) Antitumor activity against L1210 leukemia in mice after subcutaneous administration (Q2Dx5) at a dose 32 mg/kg out of 6 mice tested; type: ADME, organism-based; parameters: dose 32 mg/kg, route subcutaneous; details: in vivo, sc
[27] = system: Mus musculus; assay: as §7; type: functional
[28] = system: Mus musculus; assay: (§8) Antitumor activity against L1210 leukemia in mice after subcutaneous administration (Q2Dx5) at a dose 9 mg/kg out of 10 mice tested; type: functional
[29] = system: Lacticaseibacillus casei; assay: Compound was evaluated for growth inhibition against Lactobacillus casei ATCC 7469; type: functional, organism-based
[30] = system: Mus musculus; assay: (§9) Antitumor activity against L1210 leukemia in mice after subcutaneous administration (Q2Dx5) at a dose 18 mg/kg out of 10 mice tested; type: ADME, organism-based; parameters: dose 18 mg/kg, route subcutaneous; details: in vivo, sc
[31] = system: Mus musculus; assay: (§10) Antitumor activity against L1210 leukemia in mice after subcutaneous administration (Q2Dx5) at a dose 12 mg/kg out of 10 mice tested; type: ADME, organism-based; parameters: dose 12 mg/kg, route subcutaneous; details: in vivo, sc
[32] = system: Mus musculus; assay: as §9; type: functional
[33] = system: Mus musculus; assay: (§11) Antitumor activity against L1210 leukemia in mice after subcutaneous administration (Q2Dx5) at a dose 24 mg/kg out of 10 mice tested; type: functional
[34] = system: Mus musculus; assay: as §10; type: functional
[35] = system: Mus musculus; assay: as §11; type: ADME, organism-based; parameters: dose 24 mg/kg, route subcutaneous; details: in vivo, sc
[36] = system: Mus musculus; assay: as §8; type: ADME, organism-based; parameters: dose 9 mg/kg, route subcutaneous; details: in vivo, sc
[37] = system: Mus musculus; assay: Compound was evaluated for antitumor activity against L1210 leukemia in mice after subcutaneous administration (Q2Dx5) at 24 mg/kg; type: functional
[38] = system: Mus musculus; assay: (§12) Antitumor activity against L1210 leukemia in mice after subcutaneous administration (Q2Dx5) at a dose 32 mg/kg out of 10 mice tested; type: ADME, organism-based; parameters: dose 32 mg/kg, route subcutaneous; details: in vivo, sc
[39] = system: Mus musculus; assay: as §12; type: functional
[40] = system: Mus musculus; assay: Compound was evaluated for antitumor activity against L1210 leukemia in mice after subcutaneous administration (Q2Dx5) at 18 mg/kg; type: functional
[41] = Enterococcus faecium, ATCC 8043, read-out: IC50

CCC(CC1=Nc2c(N)nc(N)nc2NC1)c1ccc(C(=O)NC(CCC(=O)O)C(=O)O)cc1 (racemic)
IC50 [1, 41]: 1.1 ng/mL (≈ 2.34 nM)

C[C@H](Cc1cnc2nc(N)nc(N)c2n1)c1ccc(C(=O)N[C@@H](CCC(=O)O)C(=O)O)cc1 (stereo in doubt; l-L-15a)
pKi [2]: 5.72
k [3]: 0.267 min⁻¹
pKi [4]: 11.50
MIC50 [5]: 1.18 nM (≈ 0.535 ng/mL)

CC[C@H](CC1CNc2nc(N)nc(N)c2N1)c1ccc(C(=O)N[C@@H](CCC(=O)O)C(=O)O)cc1 (mixture of isomers)
IC50 [1, 41]: 2.5 ng/mL

CC[C@@H](CC1=Nc2c(N)nc(N)nc2NC1)c1ccc(C(=O)N[C@@H](CCC(=O)O)C(=O)O)cc1 (stereo in doubt; form 2)
IC50 [1, 41]: 1.1 ng/mL (≈ 2.34 nM)

CC[C@H](Cc1cnc2nc(N)nc(N)c2n1)c1ccc(C(=O)N[C@@H](CCC(=O)O)C(=O)O)cc1
30 days survivors [6]: 0
MST [7]: 18.3 days
ILS at 9 mg/kg [7]: 177%
Toxic deaths [8]: 0
30 days survivors [9]: 0
MST [10]: 19.8 days
ILS at 12 mg/kg [10]: 199%
pKi [2]: 5.80
Toxic deaths [11]: 3
30 days survivors [12]: 1
Toxic deaths [13]: 5
MST [14]: 17.5 days
ILS at 18 mg/kg [14]: 165%
MST [15]: 10 days
ILS at 24 mg/kg [15]: 55%
k [16]: 0.253 min⁻¹
MIC50 ([5]; Mus musculus): 0.43 nM (≈ 0.201 ng/mL)
30 days survivors [17]: 0
Toxic deaths [18]: 3

CC[C@@H](Cc1cnc2nc(N)nc(N)c2n1)c1ccc(C(=O)N[C@@H](CCC(=O)O)C(=O)O)cc1
MST [7]: 15.7 days
Toxic deaths [19]: 0
ILS at 12 mg/kg [10]: 138%
30 days survivors [20]: 0
MST [21]: 18.8 days
pKi [2]: 5.79
30 days survivors [22]: 0
ILS at 24 mg/kg ([22]; L1210, sc): 163%
ILS at 32 mg/kg [23]: 181%
Toxic deaths [13]: 0
MST [14]: 17.3 days
ILS at 18 mg/kg [14]: 187%
k [16]: 0.249 min⁻¹
Toxic deaths [24]: 0
MIC50 ([5]; Mus musculus): 1.52 nM (≈ 0.711 ng/mL)
30 days survivors [25]: 0
Toxic deaths [26]: 1
30 days survivors [27]: 0

CC[C@H](CC1CNc2nc(N)nc(N)c2N1)c1ccc(C(=O)N[C@@H](CCC(=O)O)C(=O)O)cc1 (stereo in doubt)
IC50 [1]: 3.1 ng/mL (≈ 6.57 nM)

CCC(CC1CNc2nc(N)nc(N)c2N1)c1ccc(C(=O)NC(CCC(=O)O)C(=O)O)cc1 (racemic)
IC50 [1, 41]: 2.6 ng/mL (≈ 5.51 nM)

CC[C@@H](CC1=Nc2c(N)nc(N)nc2NC1)c1ccc(C(=O)N[C@@H](CCC(=O)O)C(=O)O)cc1 (stereo in doubt; form 1)
IC50 [1]: 1.1 ng/mL (≈ 2.34 nM)

CN(Cc1cnc2nc(N)nc(N)c2n1)c1ccc(C(=O)N[C@@H](CCC(=O)O)C(=O)O)cc1 [METHOTREXATE]
ILS [7]: 137%
MST [7]: 15.7 days
IC50 [1]: 0.4 ng/mL (≈ 0.88 nM)
30 days survivors [28]: 0
MST [10]: 16.3 days
IC50 [29]: 0.013 ng/mL (≈ 0.0286 nM)
pKi [2]: 5.25
Toxic deaths [30]: 6
ILS [14]: 119%
MST [14]: 14.5 days
MST [15]: 9.6 days
ILS at 24 mg/kg [15]: 46%
Toxic deaths [31]: 1
k [16]: 0.213 min⁻¹
30 days survivors [32]: 0
30 days survivors [33]: 0
30 days survivors [34]: 0
MIC50 ([5]; Mus musculus): 2.48 nM (≈ 1.13 ng/mL)
Toxic deaths [35]: 10
Toxic deaths [36]: 0

C[C@H](Cc1cnc2nc(N)nc(N)c2n1)c1ccc(C(=O)N[C@@H](CCC(=O)O)C(=O)O)cc1 (stereo in doubt; d-L-15a)
pKi [2]: 5.72
k [3]: 0.258 min⁻¹
pKi [4]: 11.37
MIC50 ([5]; Mus musculus): 0.68 nM (≈ 0.308 ng/mL)

CCC(Cc1cnc2nc(N)nc(N)c2n1)c1ccc(C(=O)NC(CCC(=O)O)C(=O)O)cc1 (racemic)
MST [7]: 15.5 days
ILS at 9 mg/kg [7]: 135%
30 days survivors [28]: 0
MST [10]: 16.7 days
ILS at 12 mg/kg [10]: 153%
MST [21]: 16 days
ILS at 32 mg/kg [23]: 67%
Toxic deaths [30]: 0
MST [37]: 20.3 days
ILS at 18 mg/kg ([14]; Mus musculus): 193%
ILS at 24 mg/kg [15]: 207%
Toxic deaths [31]: 0
Toxic deaths [38]: 10
30 days survivors [32]: 0
30 days survivors [33]: 2
30 days survivors [34]: 0
30 days survivors [39]: 0
MST [40]: 19.3 days
Toxic deaths [35]: 2
Toxic deaths [36]: 0
